The first test addresses Cathepsin B (Homo sapiens, UniProt P07858). The experiment in a line: Inhibitory activity against recombinant human cathepsin B (cat B) expressed in baculovirus.
Sequence of Procathepsin L (P07711 whole entry): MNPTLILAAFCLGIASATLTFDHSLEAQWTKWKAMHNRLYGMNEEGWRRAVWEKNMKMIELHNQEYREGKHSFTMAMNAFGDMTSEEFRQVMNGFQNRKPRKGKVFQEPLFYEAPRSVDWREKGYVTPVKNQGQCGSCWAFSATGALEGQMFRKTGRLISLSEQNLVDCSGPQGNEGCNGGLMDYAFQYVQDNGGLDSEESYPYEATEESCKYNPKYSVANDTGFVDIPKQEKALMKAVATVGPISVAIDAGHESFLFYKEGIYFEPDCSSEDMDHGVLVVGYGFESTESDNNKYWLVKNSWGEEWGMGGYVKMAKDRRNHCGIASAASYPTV
Sequence of Cathepsin S (P25774 whole entry): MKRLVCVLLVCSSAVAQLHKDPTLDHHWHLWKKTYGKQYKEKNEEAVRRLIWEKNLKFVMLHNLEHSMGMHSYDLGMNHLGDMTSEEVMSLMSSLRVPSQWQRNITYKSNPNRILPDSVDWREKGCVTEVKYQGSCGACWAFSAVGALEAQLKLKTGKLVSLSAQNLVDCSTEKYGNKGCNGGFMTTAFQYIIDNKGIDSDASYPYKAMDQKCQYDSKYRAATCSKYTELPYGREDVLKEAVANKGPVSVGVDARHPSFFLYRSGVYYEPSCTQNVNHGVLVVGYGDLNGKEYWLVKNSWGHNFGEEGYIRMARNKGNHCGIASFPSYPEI
`N#CCNC(=O)[C@H](Cc1cccc(C(=N)N)c1)NC(=O)C(c1ccccc1)c1ccccc1`: the IC50 – broadly, the midpoint of a concentration-inhibition curve – was more than 1000 nM.

Regarding `Cc1cccc(C[C@H](NC(=O)c2ccc(Cl)cc2F)C(=O)N[C@H](C#N)COCc2cccc(C(=O)O)c2)c1`, the IC50 is 2 nM.

Consider `Cc1cccc(C[C@H](NC(=O)c2ccccc2)C(=O)NCC#N)c1`, for which the IC50 is 1900 nM.

As for `Cc1cc(CN)cc(C[C@H](NC(=O)C(c2ccccc2)c2ccccc2)C(=O)NCC#N)c1`, the IC50 is 358 nM.

Consider `Cc1cc(C)cc(C[C@H](NC(=O)C(c2ccccc2)c2ccccc2)C(=O)NCC#N)c1`, for which the IC50 was 11.9 nM.

For `N#CCNC(=O)[C@H](Cc1cccc(I)c1)NC(=O)C(c1ccccc1)c1ccccc1`, the IC50 worked out at 121 nM.

`Cc1cccc(C[C@H](NC(=O)C(c2ccccc2)c2ccccc2)C(=O)N[C@H](C#N)CCOc2cccc(C(=O)O)c2)c1`: the IC50 was 138 nM.

`Cc1cccc(C[C@H](NC(=O)c2ccc(Cl)cc2F)C(=O)N[C@H](C#N)COCc2ccccc2)c1`: the IC50 was 16.9 nM.

Take `Cc1cccc(C[C@H](NC(=O)c2ccc(F)cc2F)C(=O)N[C@H](C#N)COCc2ccccc2)c1`: the IC50 was found to be 42 nM.

Consider `N#CCNC(=O)[C@H](Cc1ccccc1)NC(=O)Cc1ccccc1`, for which the IC50 worked out at 34000 nM.

Consider `Cc1cccc(C[C@H](NC(=O)c2ccc(F)cc2F)C(=O)NCC#N)c1`, for which the IC50 was found to be 591 nM.

`CCCCC(=O)N[C@@H](Cc1cccc(C)c1)C(=O)N[C@H](C#N)COCc1cccc(C(=O)O)c1`: the IC50 amounted to 35.7 nM.

As to `Cc1cccc(C[C@H](NC(=O)c2ccc(Cl)cc2F)C(=O)NCC#N)c1`, the IC50 was found to be 72 nM.

As to `Cc1cccc(C[C@H](NC(=O)C(c2ccccc2)c2ccccc2)C(=O)N[C@H](C#N)COCc2ccccc2)c1`, the IC50 turned out to be 10.2 nM.

Take `Cc1cccc(C[C@H](NC(=O)C(c2ccccc2)c2ccccc2)C(=O)N[C@H](C#N)COCc2ccc(C(=O)O)cc2)c1`: the IC50 amounted to 30.7 nM.

Consider `Cc1cccc(C[C@H](NC(=O)c2ccc(Cl)c(Cl)c2)C(=O)NCC#N)c1`, for which the IC50 came out at 31.3 nM.

Regarding `Cc1cccc(C[C@H](NC(=O)c2ccccc2)C(=O)N[C@H](C#N)COCc2cccc(C(=O)O)c2)c1`, the IC50 is 9.4 nM.

As to `N#CCNC(=O)[C@H](Cc1ccc(I)cc1)NC(=O)C(c1ccccc1)c1ccccc1`, the IC50 is more than 1000 nM.

Turning to `N#CCNC(=O)[C@H](Cc1ccccc1)NC(=O)C(c1ccccc1)c1ccccc1`, the IC50 came out at 496 nM.

For `Cc1cccc(C[C@H](NC(=O)c2ccc(F)cc2F)C(=O)N[C@H](C#N)CCCc2cccc(C(=O)O)c2)c1`, the IC50 is 110 nM.

With `COC(=O)c1cccc(COC[C@@H](C#N)NC(=O)[C@H](Cc2cccc(C)c2)NC(=O)C(c2ccccc2)c2ccccc2)c1`, the IC50 was 47 nM.

With `Cc1cccc(C[C@H](NC(=O)C(c2ccccc2)c2ccccc2)C(=O)N[C@H](C#N)COCc2cccc(CO)c2)c1`, the IC50 is 29 nM.

Take `Cc1cccc(C[C@H](NC(=O)C(c2ccccc2)c2ccccc2)C(=O)N[C@H](C#N)CCCc2cccc(C(=O)O)c2)c1`: the IC50 is 18 nM.

On to `N#CCNC(=O)[C@H](Cc1cccc(Cl)c1)NC(=O)C(c1ccccc1)c1ccccc1`, for which the IC50 came to 130 nM.

Take `Cc1cccc(C[C@H](NC(=O)C(c2ccccc2)c2ccccc2)C(=O)N[C@H](C#N)CC#Cc2cccc(C(=O)O)c2)c1`: the IC50 was 5.6 nM.

In the case of `N#CCNC(=O)[C@H](Cc1ccccc1)NC(=O)OCc1ccccc1`, the half-maximal inhibitory concentration (IC50) was found to be 62000 nM.

As for `Cc1cncc(C[C@H](NC(=O)C(c2ccccc2)c2ccccc2)C(=O)NCC#N)c1`, the IC50 is 652 nM.

For the compound `CCc1cccc(C[C@H](NC(=O)C(c2ccccc2)c2ccccc2)C(=O)NCC#N)c1`, the IC50 came out at 136 nM.

As for `Cc1cccc(C[C@H](NC(=O)c2ccc(Cl)cc2)C(=O)NCC#N)c1`, the IC50 came out at 308 nM.

For `CCCCC(=O)N[C@@H](Cc1cccc(C)c1)C(=O)NCC#N`, the IC50 was 3000 nM.

The next test has as its target Cathepsin S (Homo sapiens, UniProt P25774). The experiment in a line: Inhibitory activity against recombinant human cathepsin S (cat S) expressed in baculovirus.
For `N#CCNC(=O)[C@H](Cc1ccccc1)NC(=O)Cc1ccccc1`, the IC50 stood at 226 nM.

As to `N#CCNC(=O)[C@H](Cc1ccccc1)NC(=O)C(c1ccccc1)c1ccccc1`, the IC50 was 48 nM.

The next test concerns the target Procathepsin L (Homo sapiens, UniProt P07711). The experiment in a line: Inhibitory activity against recombinant human cathepsin L (cat L) expressed in baculovirus.
As to `N#CCNC(=O)[C@H](Cc1ccccc1)NC(=O)Cc1ccccc1`, the IC50 is 170 nM.

Turning to `N#CCNC(=O)[C@H](Cc1ccccc1)NC(=O)C(c1ccccc1)c1ccccc1`, the IC50 is 31 nM.

The values are drawn from ChEMBL document CHEMBL1134316, “Identification of dipeptidyl nitriles as potent and selective inhibitors of cathepsin B through structure-based drug design” (J Med Chem, 2001).
